Test results from patent US20200032249A1, “LABELING, ISOLATION, & ANALYSIS OF RNA FROM RARE CELL POPULATIONS” (priority 2017, published 2020).

Test system: 293T cells expressing CD
Assay: immunopurification of labeled mRNAs with anti-BrdU antibody and RT-PCR, CD-expressing 293T cells
Assay type: cell-based, human
Protocol: FIG. 1a-f. Labeling and purification of RNA by CD expression and 5-FC treatment. FIG. 1a—Schematic diagram showing RNA labeling using CD and 5-FC. FIG. 1b—Chemical reactions steps involved in the labeling of RNA using CD and 5-FC. The dotted arrow indicates the intermediary steps that are not shown. FIG. 1c Relative fold enrichment of mRNA isolated by Flura-tagging. 293T cells expressing CD or unlabeled controls were treated with 5-FC for the indicated times, labeled mRNAs were immunopurified using anti-BrdU antibody, and the levels of labeled mRNAs of the indicated genes relative to corresponding non-immunoprecipitated inputs normalized to immunopurified mRNAs from cells not expressing CD were quantified by RT-PCR. […] FIG. 1d—Schematic diagram of the constructs used for inducible expression of UPRT and/or CD, and the experimental design. Transduced RFP+MDA231 cells were mixed with unlabeled cells, treated with doxycycline for 24 h and then 5-FC for 4-12 h. Cells were analyzed by immunofluorescence or harvested for RNA analysis. FIG. 1e—Flura-tagging in MDA231 cells in vitro. […] The fold enrichment of the indicated representative human genes over mouse housekeeping genes (mHPRT1 and mLDH1) was measured by RT-PCR (n=3±S.E.). […]
Next, we determined whether 5-FU-labeled mRNAs can be specifically and efficiently isolated by immunoprecipitation. […]

Nc1nc(=O)[nH]cc1F [5-FC, 5-fluorocytosine]
time for which labeling continued to increase: up to 24 h
time after treatment at which labeled mRNAs were detectable (three representative genes): 2 h
